# Test results reported in PMC6722883 (FEBS Open Bio, 2019).
# Experiment: physchem
# Settings: buffer or solvent, pH 7.2
smiles,measurement,value
"CC[C@H](C)[C@@H]1NC(=O)[C@@H]2CCCN2C(=O)[C@H](CO)NC(=O)[C@H](CCSC)NC(=O)[C@H](C)NC(=O)[C@H](CO)NC(=O)[C@@H]2CSSC[C@H](NC(=O)CN)C(=O)N[C@@H](CSSC[C@@H](C(N)=O)NC1=O)C(=O)N[C@@H](CO)C(=O)N[C@@H](Cc1cnc[nH]1)C(=O)N1CCC[C@H]1C(=O)N[C@@H](C(C)C)C(=O)N2 [TxID, α‐Conotoxin TxID]",remaining at 4 h,~50%
